In US20060148712A1, “Monocyte chemoattractant activity of galectin-3” (priority 2000, published 2006):

Tests used:
neutrophils = experiment: Neutrophil migration; type: cell-based
[1] = test system: cell recruitment into mouse air pouches; experiment: Migration assay in vivo (mouse air pouch); design: species or system Balb/c mice
Method: The mouse air pouch experiments were performed according to a method described previously (Perretti, et al., J. Immunol. 151:4306-14 (1993)). Briefly, an air pouch was induced on the back of Balb/c mice by injecting 3 ml of air intradermally 2, 4, and 6 days before the experiments. Then, 1 ml of 0.9% sodium chloride (USP grade saline, Baxter Healthcare Corporation, Deerfield, Ill.) containing 1 μM galectin-3 was injected into the pouch. As positive and negative controls, 100 ng/ml of recombinant MCP-1 and diluent only, respectively, were injected. Four h afterwards, recruited cells were recovered by gently lavaging the pouch with 1 ml of PBS containing 1 mM EDTA. Cell number was determined and the distribution of leukocyte types was analyzed after cytospin preparation and Wright staining.

[2] = 1 μM galectin-3, 1 ml into pouch, 4 h, p<0.05, n=4

Substance: galectin-3: Recombinant human galectin-3, a 26 kDa beta-galactoside-binding protein (lectin)
- Concentration required for maximum migration of neutrophils compared with monocytes (neutrophils): Lower concentrations
- Increase in number of monocytes in the air pouch over vehicle (saline) [1, 2]: 11.6 times
- Increase in number of neutrophils in the air pouch over vehicle (saline) [1, 2]: 8.21 times
- Number of eosinophils in the air pouch ([1]; 1 μM galectin-3, 4 h, p=0.112): not augmented significantly
- Number of lymphocytes in the air pouch ([1]; 1 μM galectin-3, 4 h, p=0.309): not augmented significantly
